Measured values from patent US9745360B2 (Sanofi, priority 2012, dated 2017).
Where two headings read alike, the source gives them in different places. *1 amine or outer side, *2 acyl side, *3 side chain or, on linkers, in order; H or OH if unused. Where a SMILES comes first, the peptide text is derived from it. Side-chain parts run from the residue outwards. [ ]: non-standard residue; d: D form. The star is where a group is joined. γGlu = O=C(O)[C@H](CCC(=O)[*:2])N[*:1]; Stearoyl = CCCCCCCCCCCCCCCCCC(=O)*; Palmitoyl = CCCCCCCCCCCCCCCC(=O)*; d(αMeK) = C[C@@](N)(CCCCN)C(=O)O; αMeOrn = C[C@](N)(CCCN)C(=O)O; Aib = CC(C)(N)C(=O)O

Assays:
[1] = target: T1, human GLP-1 receptor (hGLP-1 R) (Homo sapiens, UniProt P43220); assay: cAMP response (HTRF) of HEK-293 cells stably expressing human GLP-1 receptor; type: cell-based; conditions: Table 7; cAMP formation
T1 construct: expressed in transfected cells
T1 sequence (P43220 24-463): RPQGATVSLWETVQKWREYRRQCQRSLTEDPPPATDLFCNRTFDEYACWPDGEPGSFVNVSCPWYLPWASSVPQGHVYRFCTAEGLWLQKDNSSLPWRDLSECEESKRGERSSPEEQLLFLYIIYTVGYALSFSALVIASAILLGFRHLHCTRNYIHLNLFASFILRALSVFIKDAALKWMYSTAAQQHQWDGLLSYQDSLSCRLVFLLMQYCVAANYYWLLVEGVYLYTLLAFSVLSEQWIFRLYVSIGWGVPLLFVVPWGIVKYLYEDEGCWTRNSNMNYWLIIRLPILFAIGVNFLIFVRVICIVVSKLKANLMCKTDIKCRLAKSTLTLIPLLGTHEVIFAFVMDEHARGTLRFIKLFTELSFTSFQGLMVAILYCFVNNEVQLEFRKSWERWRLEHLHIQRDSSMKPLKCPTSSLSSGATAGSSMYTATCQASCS
Procedure: (§1) cAMP content of cells was determined using a kit from Cisbio Corp. (cat. no. 62AM4PEC) based on HTRF (Homogenous Time Resolved Fluorescence). For preparation, cells were split into T175 culture flasks and grown overnight to near confluency in medium (DMEM/10% FBS). Medium was then removed and cells washed with PBS lacking calcium and magnesium, followed by proteinase treatment with accutase (Sigma-Aldrich cat. no. A6964). Detached cells were washed and resuspended in assay buffer (1×HBSS; 20 mM HEPES, 0.1% BSA, 2 mM IBMX) and cellular density determined. They were then diluted to 400000 cells/ml and 25 μl-aliquots dispensed into the wells of 96-well plates. For measurement, 25 μl of test compound in assay buffer was added to the wells, followed by incubation for 30 minutes at room temperature.

[2] = tested on: non-fasted female diabetic dbdb-mice; assay: Glucose lowering in non-fasted female diabetic dbdb-mice; type: in vivo; conditions: 3 μg/kg s.c., at 240 min, kept to 480 min, baseline 20-22 mmol/l
Excerpt: Female diabetic dbdb-mice of mean non-fasted glucose value of 20-22 mmol/l and a body weight of 42 g+/−0.6 g (SEM) were used. Mice were individually marked and were adapted to housing conditions for at least one week.
3-5 days prior to study start mice were assigned to groups and cages (4 mice per cage, 8 per group, control group 16) according to their non-fasted glucose values to ensure even distribution of lower and higher values between groups (stratification). On the study day, mice were weighed and dosed (t=0). Immediately prior to compound administration feed was removed while water remained available, and a first blood sample at a tail incision was drawn (baseline). Further blood samples were drawn at the tail incision at 30, 60, 90, 120, 240, 360, and 480 min.
Statistical analyses are performed with Everstat Version 6.0 based on SAS by 2-way-ANOVA on repeated measures, followed by Dunnett's post-hoc test against vehicle-control. Differences are considered statistically significant at the p<0.05 level.

[3] = Pharmacokinetic testing in mice, s.c., LC/MS of plasma; type: in vivo; conditions: mouse, sc, 1 mg/kg s.c.
Procedure: Mice were dosed 1 mg/kg subcutaneously (s.c.).
Pharmacokinetic profiles were determined as described in Methods.

[4] = Chemical stability in solution, 7 days at 25° C., % remaining peptide; type: physicochemical; conditions: % remaining peptide after 7 days at 25° C.
Procedure: The chemical stability is expressed as “% remaining peptide”.
(§2) Solubility and chemical stability of peptidic compounds were assessed as described in Methods.

[5] = target: T2, human GIP receptor (hGIP R) (Homo sapiens, UniProt P48546); assay: cAMP response (HTRF) of HEK-293 cells stably expressing human GIP receptor; type: cell-based; conditions: Table 7; cAMP formation
T2 construct: expressed in transfected cells
T2 sequence (P48546 22-466): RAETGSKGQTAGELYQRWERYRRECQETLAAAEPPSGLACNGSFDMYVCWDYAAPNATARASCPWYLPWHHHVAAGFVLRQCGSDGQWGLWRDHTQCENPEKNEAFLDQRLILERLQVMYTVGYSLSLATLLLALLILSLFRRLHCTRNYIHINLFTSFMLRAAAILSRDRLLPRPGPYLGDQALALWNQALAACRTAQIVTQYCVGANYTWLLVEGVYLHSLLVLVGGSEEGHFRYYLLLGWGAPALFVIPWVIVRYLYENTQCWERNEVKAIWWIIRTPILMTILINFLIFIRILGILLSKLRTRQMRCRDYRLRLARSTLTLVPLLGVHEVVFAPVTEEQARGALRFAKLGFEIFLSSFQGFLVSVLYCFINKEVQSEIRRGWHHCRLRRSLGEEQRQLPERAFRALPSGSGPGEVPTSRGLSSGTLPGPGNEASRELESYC
Procedure: as §1

[6] = Solubility testing in buffer, HPLC-UV of supernatant; type: physicochemical; conditions: buffer, target concentration 1.0 mg/mL
Procedure: as §2

[7] = target: T3, human glucagon receptor (hGLUC R) (Homo sapiens, UniProt P47871); assay: cAMP response (HTRF) of HEK-293 cells stably expressing human glucagon receptor; type: cell-based; conditions: Table 7; cAMP formation
T3 construct: expressed in transfected cells
T3 sequence (P47871 26-477): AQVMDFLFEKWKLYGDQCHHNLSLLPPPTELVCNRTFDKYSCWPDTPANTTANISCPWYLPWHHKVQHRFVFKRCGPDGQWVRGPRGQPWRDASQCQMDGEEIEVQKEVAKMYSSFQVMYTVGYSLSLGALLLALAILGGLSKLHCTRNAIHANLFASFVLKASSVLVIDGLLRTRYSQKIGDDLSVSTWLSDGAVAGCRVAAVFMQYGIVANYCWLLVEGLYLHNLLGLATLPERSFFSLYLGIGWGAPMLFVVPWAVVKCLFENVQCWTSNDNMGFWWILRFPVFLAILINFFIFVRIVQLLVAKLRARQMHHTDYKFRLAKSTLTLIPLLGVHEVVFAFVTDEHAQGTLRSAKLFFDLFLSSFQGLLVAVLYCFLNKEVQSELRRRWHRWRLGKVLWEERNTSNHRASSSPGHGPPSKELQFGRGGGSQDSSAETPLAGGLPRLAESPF
Procedure: as §1

Row | SMILES | EC50 [1] [nM] | maximal effect, glucose reduction [2] [mmol/L] | Cmax [3] [ng/mL] | half-life [3] [h] | Stability (pH 4.5) ([4]; pH 4.5) [%] | Stability (pH 7.4) ([4]; pH 7.4) [%] | EC50 [5] [nM] | solubility at 2 h ([6]; pH 4.5, read-out: Solubility (pH 4.5)) [µg/mL] | solubility at 2 h ([6]; pH 7.4, read-out: Solubility (pH 7.4)) [µg/mL] | EC50 [7] [nM]
1 | CCCCCCCCCCCCCCCCCC(=O)N[C@@H](CCC(=O)NCCCC[C@H](NC(=O)[C@H](CCC(N)=O)NC(=O)[C@@H](NC(=O)[C@H](CO)NC(=O)[C@H](CC(C)C)NC(=O)[C@H](CC(=O)O)NC(=O)[C@H](CO)NC(=O)[C@@H](NC(=O)[C@H](Cc1ccccc1)NC(=O)[C@@H](NC(=O)CNC(=O)[C@H](CCC(N)=O)NC(=O)C(C)(C)NC(=O)[C@@H](N)Cc1ccc(O)cc1)[C@@H](C)O)[C@@H](C)O)[C@@H](C)CC)C(=O)N[C@@H](CC(=O)O)C(=O)N[C@@H](CCC(=O)O)C(=O)N[C@@H](CCC(N)=O)C(=O)N[C@@H](CCCNC(=N)N)C(=O)N[C@@H](C)C(=O)N[C@@](C)(CCCN)C(=O)N[C@@H](CCC(=O)O)C(=O)N[C@@H](Cc1ccccc1)C(=O)N[C@H](C(=O)N[C@@H](CCC(=O)O)C(=O)N[C@@H](Cc1c[nH]c2ccccc12)C(=O)N[C@@H](CC(C)C)C(=O)N[C@@H](CCCCN)C(=O)N[C@@H](C)C(=O)NCC(=O)NCC(=O)N1CCC[C@H]1C(=O)N[C@@H](CO)C(=O)N[C@@H](CO)C(=O)NCC(=O)N[C@@H](C)C(=O)N1CCC[C@H]1C(=O)N1CCC[C@H]1C(=O)N1CCC[C@H]1C(=O)N[C@@H](CO)C(N)=O)[C@@H](C)CC)C(=O)O [SEQ ID NO: 15, Y-Aib-Q-G-T-F-T-S-D-L-S-I-Q-K(γE-x70)-D-E-Q-R-A-(S)MeOrn-E-F-I-E-W-L-K-A-G-G-P-S-S-G-A-P-P-P-S-NH2] (H-Y[Aib]QGTFTSDLSIQK([γGlu-Stearoyl])DEQRA[αMeOrn]EFIEWLKAGGPSSGAPPPS-NH2) | 0.0161 | ~12 | 3740 | 2.9 | 98.0 | 98.0 | 0.0089 | > 1000 | > 1000 | 
2 | CCCCCCCCCCCCCCCC(=O)N[C@@H](CCC(=O)NCCCC[C@H](NC(=O)[C@H](CCC(N)=O)NC(=O)[C@@H](NC(=O)[C@H](CO)NC(=O)[C@H](CC(C)C)NC(=O)[C@H](CC(=O)O)NC(=O)[C@H](CO)NC(=O)[C@@H](NC(=O)[C@H](Cc1ccccc1)NC(=O)[C@@H](NC(=O)CNC(=O)[C@H](CCC(=O)O)NC(=O)C(C)(C)NC(=O)[C@@H](N)Cc1ccc(O)cc1)[C@@H](C)O)[C@@H](C)O)[C@@H](C)CC)C(=O)N[C@@H](CCC(=O)O)C(=O)N[C@@H](CCC(=O)O)C(=O)N[C@@H](CCCNC(=N)N)C(=O)N[C@@H](C)C(=O)N[C@@H](C)C(=O)N[C@](C)(CCCCN)C(=O)N[C@@H](CCC(=O)O)C(=O)N[C@@H](Cc1ccccc1)C(=O)N[C@H](C(=O)N[C@@H](CCC(=O)O)C(=O)N[C@@H](Cc1c[nH]c2ccccc12)C(=O)N[C@@H](CC(C)C)C(=O)N[C@@H](CCCCN)C(=O)N[C@@H](CC(N)=O)C(=O)N[C@H](C(=O)NCC(=O)N1CCC[C@H]1C(=O)N[C@@H](CO)C(=O)N[C@@H](CO)C(=O)NCC(=O)N[C@@H](C)C(=O)N1CCC[C@H]1C(=O)N1CCC[C@H]1C(=O)N1CCC[C@H]1C(=O)N[C@@H](CO)C(N)=O)[C@@H](C)O)[C@@H](C)CC)C(=O)O [SEQ ID NO: 9, Y-Aib-E-G-T-F-T-S-D-L-S-I-Q-K(γE-x53)-E-E-R-A-A-(R)MeLys-E-F-I-E-W-L-K-N-T-G-P-S-S-G-A-P-P-P-S-NH2] (H-Y[Aib]EGTFTSDLSIQK([γGlu-Palmitoyl])EERAA[d(αMeK)]EFIEWLKNTGPSSGAPPPS-NH2) | 0.0135 |  |  |  |  |  | 0.0932 |  |  | > 1000
